PubChem BioAssay AID220 (DTP/NCI, 2004)
Several values for one entry are separate records, joined by “and”; a condition that tells them apart may be missing. Equal entries are not always repeated. Inconclusive results are not listed.

Test system: CD8F1 mice, subcutaneous mammary adenocarcinoma, T/C%
Test: NCI In Vivo Anticancer Drug Screen. Data for tumor model Mammary Adenocarcinoma CD8F1 (subcutaneous) in CD8F1
Conditions: higher = larger tumour
Method in brief: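 Transplantable tumors were established in mice, animals were dosed with compound or vehicle, and survival or tumor size was then measured in both groups. The treated result was divided by the control result.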

[1] = endpoint: median tumor weight (est.), dose: 25.0 mg/kg/injection, schedule: Q07DX005 (ip), vehicle: Klucel (hydroxypropylcellulose) (HPC)
[2] = endpoint: median tumor weight (est.), dose: 50.0 mg/kg/injection, schedule: Q07DX005 (ip), vehicle: Klucel (hydroxypropylcellulose) (HPC)
[3] = endpoint: median tumor weight (est.), dose: 200.0 mg/kg/injection, schedule: Q07DX005 (ip), vehicle: Klucel (hydroxypropylcellulose) (HPC)
[4] = endpoint: median tumor weight change, dose: 500.0 mg/kg/injection, schedule: Q01DX001 (ip), vehicle: Klucel (hydroxypropylcellulose) (HPC)
[5] = endpoint: median tumor weight (est.), dose: 100.0 mg/kg/injection, schedule: Q07DX005 (ip), vehicle: Klucel (hydroxypropylcellulose) (HPC)
[6] = endpoint: median tumor weight change, dose: 62.5 mg/kg/injection, schedule: Q01DX001 (ip), vehicle: saline with Tween-80
[7] = endpoint: median tumor weight change, dose: 125.0 mg/kg/injection, schedule: Q01DX001 (ip), vehicle: saline with Tween-80
[8] = endpoint: median tumor weight change, dose: 500.0 mg/kg/injection, schedule: Q01DX001 (ip), vehicle: saline with Tween-80

## Nc1nc(Br)nc2c1ncn2C1CC(O)C(CO)O1 (stereo unspecified)
endpoint: median tumor weight change, dose: 7.5 mg/kg/injection, schedule: Q03HX009 (ip), vehicle: saline
  T/C: 112 % of control
endpoint: median tumor weight change, dose: 15.0 mg/kg/injection, schedule: Q03HX009 (ip), vehicle: saline
  T/C: 99 % of control
endpoint: median tumor weight change, dose: 30.0 mg/kg/injection, schedule: Q03HX009 (ip), vehicle: saline
  T/C: 51 % of control
endpoint: median tumor weight change, dose: 60.0 mg/kg/injection, schedule: Q03HX009 (ip), vehicle: saline
  T/C: 54 % of control
endpoint: median tumor weight change, dose: 120.0 mg/kg/injection, schedule: Q03HX009 (ip), vehicle: saline
  T/C: 31 % of control

## C[C@]12CCC(=O)C=C1CC[C@@H]1[C@@H]2C(=O)C[C@@]2(C)[C@H]1CC[C@]2(O)C(=O)CO
endpoint: median tumor weight (est.), dose: 2.0 mg/kg/injection, schedule: Q07DX005 (ip), vehicle: Klucel (hydroxypropylcellulose) (HPC)
  T/C: 68 % of control
endpoint: median tumor weight (est.), dose: 4.0 mg/kg/injection, schedule: Q07DX005 (ip), vehicle: Klucel (hydroxypropylcellulose) (HPC)
  T/C: 91 % of control
endpoint: median tumor weight (est.), dose: 8.0 mg/kg/injection, schedule: Q07DX005 (ip), vehicle: Klucel (hydroxypropylcellulose) (HPC)
  T/C: 97 % of control
endpoint: median tumor weight (est.), dose: 16.0 mg/kg/injection, schedule: Q07DX005 (ip), vehicle: Klucel (hydroxypropylcellulose) (HPC)
  T/C: 71 % of control
[1]
  T/C: 80 % of control
[2]
  T/C: 67 % of control
[3]
  T/C: 35 % of control and 58 % of control
[4]
  T/C: 46 % of control and 64 % of control
endpoint: median tumor weight change, dose: 1000.0 mg/kg/injection, schedule: Q01DX001 (ip), vehicle: Klucel (hydroxypropylcellulose) (HPC)
  T/C: 33 % of control and 49 % of control
endpoint: median tumor weight change, dose: 2000.0 mg/kg/injection, schedule: Q01DX001 (ip), vehicle: Klucel (hydroxypropylcellulose) (HPC)
  T/C: 24 % of control and 44 % of control
endpoint: median tumor weight change, dose: 4000.0 mg/kg/injection, schedule: Q01DX001 (ip), vehicle: Klucel (hydroxypropylcellulose) (HPC)
  T/C: -18 % of control

## CCN(CC)c1ccc2cc(-c3nc4ccccc4n3C)c(=O)oc2c1
[1]
  T/C: 62 % of control and 84 % of control
[2]
  T/C: 79 % of control
[5]
  T/C: 35 % of control
[3]
  T/C: 24 % of control
endpoint: median tumor weight change, dose: 125.0 mg/kg/injection, schedule: Q01DX001 (ip), vehicle: Klucel (hydroxypropylcellulose) (HPC)
  T/C: 92 % of control
endpoint: median tumor weight change, dose: 250.0 mg/kg/injection, schedule: Q01DX001 (ip), vehicle: Klucel (hydroxypropylcellulose) (HPC)
  T/C: 80 % of control
[4]
  T/C: 37 % of control

## COC1/C=C/O[C@@]2(C)Oc3c(C)c(O)c4c(O)c(cc(O)c4c3C2=O)NC(=O)/C(C)=C\C=C\[C@H](C)C(O)[C@@H](C)[C@@H](O)[C@@H](C)[C@H](OC(C)=O)[C@@H]1C (stereo partly specified)
endpoint: median tumor weight change, dose: 31.25 mg/kg/injection, schedule: Q01DX001 (ip), vehicle: saline with Tween-80
  T/C: 87 % of control
[6]
  T/C: 82 % of control
[7]
  T/C: 98 % of control
endpoint: median tumor weight change, dose: 250.0 mg/kg/injection, schedule: Q01DX001 (ip), vehicle: saline with Tween-80
  T/C: 153 % of control
[8]
  T/C: 83 % of control

## Cc1ccc(S(=O)(=O)N/N=C/C(=O)O)cc1
endpoint: median tumor weight (est.), dose: 12.5 mg/kg/injection, schedule: Q07DX005 (ip), vehicle: Klucel (hydroxypropylcellulose) (HPC)
  T/C: 60 % of control
endpoint: median tumor weight (est.), dose: 12.5 mg/kg/injection, schedule: Q07DX005 (ip), vehicle: other
  T/C: 97 % of control
[1]
  T/C: 120 % of control
endpoint: median tumor weight (est.), dose: 25.0 mg/kg/injection, schedule: Q07DX005 (ip), vehicle: other
  T/C: 70 % of control and 76 % of control
[2]
  T/C: 62 % of control
[5]
  T/C: 53 % of control

## CN(C)P(=O)(Oc1ccccc1)N(C)C
[6]
  T/C: 86 % of control
[7]
  T/C: 63 % of control
[8]
  T/C: 94 % of control

## CC(=O)O[C@H]1C(=O)[C@@]2(C)[C@H]([C@H](OC(=O)c3ccccc3)[C@]3(O)C[C@H](OC(=O)[C@H](O)[C@@H](NC(=O)c4ccccc4)c4ccccc4)C(C)=C1C3(C)C)[C@]1(OC(C)=O)CO[C@@H]1C[C@@H]2O
endpoint: median tumor weight (est.), dose: 15.0 mg/kg/injection, schedule: Q07DX005 (ip), vehicle: Klucel (hydroxypropylcellulose) (HPC)
  T/C: 57 % of control

## CCOC(=O)CNC(=O)CCCCSc1ncnc2nc[nH]c12
endpoint: mean tumor weight, dose: 20.0 mg/kg/injection, schedule: Q07DX005 (ip), vehicle: saline
  T/C: 121 % of control
endpoint: mean tumor weight, dose: 40.0 mg/kg/injection, schedule: Q07DX005 (ip), vehicle: saline
  T/C: 84 % of control
endpoint: mean tumor weight, dose: 80.0 mg/kg/injection, schedule: Q07DX005 (ip), vehicle: saline
  T/C: 48 % of control
endpoint: mean tumor weight, dose: 160.0 mg/kg/injection, schedule: Q07DX005 (ip), vehicle: saline
  T/C: 39 % of control
endpoint: mean tumor weight, dose: 320.0 mg/kg/injection, schedule: Q07DX005 (ip), vehicle: saline
  T/C: 67 % of control
endpoint: mean tumor weight, dose: 640.0 mg/kg/injection, schedule: Q07DX005 (ip), vehicle: saline
  T/C: 45 % of control
endpoint: median tumor weight (est.), dose: 20.0 mg/kg/injection, schedule: Q07DX004 (ip), vehicle: saline
  T/C: 78 % of control
endpoint: median tumor weight (est.), dose: 40.0 mg/kg/injection, schedule: Q07DX004 (ip), vehicle: saline
  T/C: 63 % of control
endpoint: median tumor weight (est.), dose: 80.0 mg/kg/injection, schedule: Q07DX004 (ip), vehicle: saline
  T/C: 40 % of control
endpoint: median tumor weight (est.), dose: 160.0 mg/kg/injection, schedule: Q07DX004 (ip), vehicle: saline
  T/C: 97 % of control
endpoint: median tumor weight (est.), dose: 320.0 mg/kg/injection, schedule: Q07DX004 (ip), vehicle: saline
  T/C: 109 % of control

## COC1C(OC(=O)/C=C/C=C/C=C/C=C/C(=O)O)CCC2(CO2)C1C1(C)OC1CC=C(C)C (stereo unspecified)
endpoint: median tumor weight (est.), dose: 25.0 mg/kg/injection, schedule: Q07DX005 (ip), vehicle: suspension in saline
  T/C: 102 % of control
endpoint: median tumor weight (est.), dose: 50.0 mg/kg/injection, schedule: Q07DX005 (ip), vehicle: suspension in saline
  T/C: 106 % of control
endpoint: median tumor weight (est.), dose: 100.0 mg/kg/injection, schedule: Q07DX005 (ip), vehicle: suspension in saline
  T/C: 91 % of control
endpoint: median tumor weight (est.), dose: 200.0 mg/kg/injection, schedule: Q07DX005 (ip), vehicle: suspension in saline
  T/C: 94 % of control
endpoint: median tumor weight change, dose: 125.0 mg/kg/injection, schedule: Q01DX001 (ip), vehicle: suspension in saline
  T/C: 85 % of control
endpoint: median tumor weight change, dose: 250.0 mg/kg/injection, schedule: Q01DX001 (ip), vehicle: suspension in saline
  T/C: 56 % of control
endpoint: median tumor weight change, dose: 500.0 mg/kg/injection, schedule: Q01DX001 (ip), vehicle: suspension in saline
  T/C: 58 % of control
